Common to all, as to design: scale not given: the % may be the effect or the level left
Experiment [1] concerns the target T1, Serine/threonine-protein kinase ULK1 (Homo sapiens) (UniProt O75385).
T1 sequence (whole entry): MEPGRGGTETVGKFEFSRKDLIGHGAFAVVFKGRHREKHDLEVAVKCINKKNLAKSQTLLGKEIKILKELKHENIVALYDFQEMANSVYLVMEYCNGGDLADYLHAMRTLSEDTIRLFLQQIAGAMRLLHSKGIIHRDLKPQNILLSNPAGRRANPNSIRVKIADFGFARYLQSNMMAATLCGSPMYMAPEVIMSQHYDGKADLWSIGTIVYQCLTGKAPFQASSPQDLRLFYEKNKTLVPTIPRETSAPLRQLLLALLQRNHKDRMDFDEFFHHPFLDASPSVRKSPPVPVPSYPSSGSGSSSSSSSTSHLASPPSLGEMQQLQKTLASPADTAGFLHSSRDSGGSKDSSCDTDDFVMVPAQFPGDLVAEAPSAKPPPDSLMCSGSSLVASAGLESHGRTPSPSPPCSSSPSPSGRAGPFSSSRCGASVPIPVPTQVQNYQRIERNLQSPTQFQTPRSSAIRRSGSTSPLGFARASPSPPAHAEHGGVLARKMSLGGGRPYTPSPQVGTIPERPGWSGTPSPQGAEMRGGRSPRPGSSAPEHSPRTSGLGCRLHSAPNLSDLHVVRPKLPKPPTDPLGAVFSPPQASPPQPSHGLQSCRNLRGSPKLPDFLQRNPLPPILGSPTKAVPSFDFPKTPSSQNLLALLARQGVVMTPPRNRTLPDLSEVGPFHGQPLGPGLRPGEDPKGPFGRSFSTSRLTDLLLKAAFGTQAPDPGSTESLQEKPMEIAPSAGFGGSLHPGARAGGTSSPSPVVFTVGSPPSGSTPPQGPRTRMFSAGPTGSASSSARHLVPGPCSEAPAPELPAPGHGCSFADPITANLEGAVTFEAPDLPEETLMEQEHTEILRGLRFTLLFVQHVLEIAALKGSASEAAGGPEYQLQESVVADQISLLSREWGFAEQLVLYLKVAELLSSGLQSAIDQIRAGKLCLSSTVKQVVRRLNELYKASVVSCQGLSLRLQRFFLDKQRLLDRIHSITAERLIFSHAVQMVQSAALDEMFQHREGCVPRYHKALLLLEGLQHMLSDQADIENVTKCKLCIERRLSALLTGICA
Description: Inhibition of human ULK1 assessed as enzyme activity at 1 uM using myelin basic protein as substrate preincubated for 20 mins followed by [gamma-33P]-ATP addition and measured after 120 mins by radiometric Hot-SpotSM Kinase assay relative to control.

Experiment [2] concerns the target Serine/threonine-protein kinase/endoribonuclease IRE2 (Homo sapiens) (UniProt Q76MJ5). Description: Inhibition of human ERN2/IRE2 assessed as enzyme activity at 1 uM using myelin basic protein as substrate preincubated for 20 mins followed by [gamma-33P]-ATP addition and measured after 120 mins by radiometric Hot-SpotSM Kinase assay relative to control.
Experiment [3] concerns the target T2, Tyrosine-protein kinase JAK3 (Homo sapiens) (UniProt P52333).
T2 sequence (whole entry): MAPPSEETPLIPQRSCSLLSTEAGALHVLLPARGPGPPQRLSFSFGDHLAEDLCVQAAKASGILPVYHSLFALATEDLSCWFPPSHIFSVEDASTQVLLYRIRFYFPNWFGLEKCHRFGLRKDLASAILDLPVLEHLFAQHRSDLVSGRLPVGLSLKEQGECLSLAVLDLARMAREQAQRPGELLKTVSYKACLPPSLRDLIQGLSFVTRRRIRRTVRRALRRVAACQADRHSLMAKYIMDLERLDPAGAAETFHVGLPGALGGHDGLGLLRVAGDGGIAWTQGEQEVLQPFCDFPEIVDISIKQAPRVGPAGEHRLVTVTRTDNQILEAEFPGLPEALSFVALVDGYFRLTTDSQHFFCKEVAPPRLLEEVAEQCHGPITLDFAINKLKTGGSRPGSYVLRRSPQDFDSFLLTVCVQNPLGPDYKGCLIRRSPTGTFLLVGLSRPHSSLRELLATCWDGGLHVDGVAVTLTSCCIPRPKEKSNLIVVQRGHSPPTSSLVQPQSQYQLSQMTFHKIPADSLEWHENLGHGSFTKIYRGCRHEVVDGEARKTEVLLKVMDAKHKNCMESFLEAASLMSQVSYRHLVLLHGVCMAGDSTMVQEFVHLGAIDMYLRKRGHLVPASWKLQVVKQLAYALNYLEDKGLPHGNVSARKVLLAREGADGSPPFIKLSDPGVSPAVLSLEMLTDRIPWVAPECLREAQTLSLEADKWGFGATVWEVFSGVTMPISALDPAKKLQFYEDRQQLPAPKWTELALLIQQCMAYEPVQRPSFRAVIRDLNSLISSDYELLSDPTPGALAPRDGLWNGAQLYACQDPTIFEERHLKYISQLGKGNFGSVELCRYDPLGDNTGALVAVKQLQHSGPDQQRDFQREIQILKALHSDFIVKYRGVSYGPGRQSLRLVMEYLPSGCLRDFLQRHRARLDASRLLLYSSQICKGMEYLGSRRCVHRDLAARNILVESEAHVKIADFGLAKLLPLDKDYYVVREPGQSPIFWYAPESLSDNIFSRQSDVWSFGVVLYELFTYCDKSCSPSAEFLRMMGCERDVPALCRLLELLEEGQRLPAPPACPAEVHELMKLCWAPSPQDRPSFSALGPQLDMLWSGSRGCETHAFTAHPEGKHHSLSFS
Description: Inhibition of human JAK3 assessed as enzyme activity at 1 uM using GGEEEEYFELVKKKK as substrate preincubated for 20 mins followed by [gamma-33P]-ATP addition and measured after 120 mins by radiometric Hot-SpotSM Kinase assay relative to control.

The structures appear in SMILES notation.

Sequence of Serine/threonine-protein kinase/endoribonuclease IRE2 (Homo sapiens) (Q76MJ5 35-926 limits assumed): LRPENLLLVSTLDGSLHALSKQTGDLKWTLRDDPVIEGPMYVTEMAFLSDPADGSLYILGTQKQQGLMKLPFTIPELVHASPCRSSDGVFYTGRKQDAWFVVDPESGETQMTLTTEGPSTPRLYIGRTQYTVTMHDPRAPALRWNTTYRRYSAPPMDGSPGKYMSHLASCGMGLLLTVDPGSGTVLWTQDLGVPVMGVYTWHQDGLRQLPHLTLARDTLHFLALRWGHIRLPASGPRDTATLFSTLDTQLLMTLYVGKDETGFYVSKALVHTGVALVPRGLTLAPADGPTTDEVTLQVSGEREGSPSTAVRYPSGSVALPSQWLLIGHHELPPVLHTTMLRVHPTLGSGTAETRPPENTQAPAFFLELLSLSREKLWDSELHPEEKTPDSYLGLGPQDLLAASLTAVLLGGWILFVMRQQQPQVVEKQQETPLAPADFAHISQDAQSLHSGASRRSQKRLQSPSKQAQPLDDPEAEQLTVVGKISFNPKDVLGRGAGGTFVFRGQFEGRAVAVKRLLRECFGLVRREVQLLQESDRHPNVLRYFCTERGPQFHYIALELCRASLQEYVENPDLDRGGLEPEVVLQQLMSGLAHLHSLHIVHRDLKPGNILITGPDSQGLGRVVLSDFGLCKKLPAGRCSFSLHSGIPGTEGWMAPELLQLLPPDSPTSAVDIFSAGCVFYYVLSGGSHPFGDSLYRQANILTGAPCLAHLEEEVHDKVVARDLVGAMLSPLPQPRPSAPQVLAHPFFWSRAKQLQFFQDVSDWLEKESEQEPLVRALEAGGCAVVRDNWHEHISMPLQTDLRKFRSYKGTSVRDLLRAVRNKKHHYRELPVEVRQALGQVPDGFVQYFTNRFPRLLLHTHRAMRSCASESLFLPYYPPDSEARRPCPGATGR

For the molecule `C[C@H](Nc1ncnc2nc[nH]c12)c1cc2cccc(Cl)c2c(=O)n1-c1ccccc1`, the Activity in experiment [1] was determined as 111%; in experiment [2], 96.5%; in experiment [3] it was 95.2%.
For `CC[C@H](Nc1ncnc2[nH]cnc12)c1nc2cccc(F)c2c(=O)n1-c1ccccc1`, in that order: 96.9%, 100% and 94.3%.
For `CC(C)Oc1ccc(-c2nn([C@@H](C)c3oc4ccc(F)cc4c(=O)c3-c3cccc(F)c3)c3ncnc(N)c23)cc1F` [UMBRALISIB], in that order: 100%, 98.3% and 91.2%.

Source of the values: ChEMBL document CHEMBL5715954, “Silencing c-Myc translation as a therapeutic strategy through targeting PI3Kδ and CK1ε in hematological malignancies” (Blood, 2017).
